In the supplement of paper PMC10307832:

Legend:
Experiment in all cases: relative viability (nuclei count vs DMSO), 5 days (fraction); higher = more cells survive
[1] = compound: CC(C)=CC[C@@H](O)C1=CC(=O)c2c(O)ccc(O)c2C1=O [Shikonin] + N=C(N)NC(=N)NCCc1ccccc1 [Phenformin] (partner 250 µM)
Procedure, shortened: (§1)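 Values are medians from duplicate plates. Each reflects relative viability, defined as the nuclei count of treated wells over that of vehicle wells. Lung cancer cell lines in 1536-well plates were pin-tool dosed one day after seeding with one drug alone or with a fixed anchor-drug dose plus five library-drug doses (not always all listed) in √10 steps, then fixed, stained and imaged at 4× after 5 days.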

[2] = compound: CC(C)N(CCCNC(=O)Nc1ccc(C(C)(C)C)cc1)C[C@H]1O[C@@H](n2ccc3c(N)ncnc32)[C@H](O)[C@@H]1O + CC(C)C[C@H](NC(=O)[C@H](Cc1ccccc1)NC(=O)c1cnccn1)B(O)O [Bortezomib] (partner 0.002 µM)
Procedure, shortened: as §1

[3] = compound: CC(C)=CC[C@@H](O)C1=CC(=O)c2c(O)ccc(O)c2C1=O [Shikonin] + CC(=O)Nc1cccc(-n2c(=O)n(C3CC3)c(=O)c3c(Nc4ccc(I)cc4F)n(C)c(=O)c(C)c32)c1 [Trametinib] (partner 0.02 µM)
Procedure, shortened: as §1

[4] = compound: CC(C)N(CCCNC(=O)Nc1ccc(C(C)(C)C)cc1)C[C@H]1O[C@@H](n2ccc3c(N)ncnc32)[C@H](O)[C@@H]1O + O=C(CCCCCCC(=O)Nc1ccccc1)NO [Vorinostat] (partner 1 µM)
Procedure, shortened: as §1

Row | Cell Line | relative viability ([1]; first compound 0.01 µM) | relative viability ([1]; first compound 0.1 µM) | relative viability ([1]; first compound 0.3162 µM) | relative viability ([1]; first compound 1 µM) | relative viability ([2]; first compound 0.08 µM) | relative viability ([2]; first compound 0.253 µM) | relative viability ([2]; first compound 0.8 µM) | relative viability ([2]; first compound 2.53 µM) | relative viability ([2]; first compound 8 µM) | relative viability ([3]; first compound 0.01 µM) | relative viability ([3]; first compound 0.1 µM) | relative viability ([3]; first compound 0.3162 µM) | relative viability ([3]; first compound 1 µM) | relative viability ([4]; first compound 0.08 µM) | relative viability ([4]; first compound 0.253 µM) | relative viability ([4]; first compound 2.53 µM) | relative viability ([4]; first compound 8 µM) | relative viability ([4]; first compound 0.8 µM)
1 | 201T | 0.464 | 0.492 | 0.428 | 0.498 | 1.08 | 1.11 | 1.03 | 1.07 | 1.06 | 0.724 | 0.777 | 0.75 | 0.707 | 0.984 | 0.975 | 0.911 | 0.931 | –
2 | A549 | 0.14 | 0.355 | 0.12 | 0.122 | – | – | – | – | – | – | – | – | – | – | – | – | – | –
3 | A-427 | 0.327 | 0.418 | 0.316 | 0.398 | 0.927 | 0.973 | 0.996 | 1.01 | 0.967 | 0.776 | 0.816 | 0.821 | 0.779 | 0.839 | 0.912 | 0.901 | 0.9 | 0.875
4 | ABC-1 | 0.247 | 0.23 | 0.206 | 0.188 | 0.28 | 0.249 | – | 0.344 | 0.325 | – | – | – | – | 1.19 | 1.29 | 1.07 | 0.919 | –
5 | BEN | 0.298 | 0.286 | 0.279 | 0.232 | 0.934 | 0.762 | 0.776 | 0.662 | 0.57 | 1.13 | 1.06 | 1.03 | 1.19 | 0.597 | 0.539 | 0.606 | 0.572 | 0.576
6 | CAL-12T | 0.612 | 0.542 | 0.464 | 0.55 | 1.04 | 0.739 | 0.907 | 0.847 | 0.784 | 0.346 | 0.376 | 0.243 | 0.28 | 0.788 | 0.76 | 0.644 | 0.578 | 0.965
7 | COR-L23 | 0.462 | 0.438 | 0.465 | 0.406 | 0.87 | 0.968 | 0.464 | 1.1 | 0.929 | 0.769 | 0.685 | 0.622 | 0.508 | 0.378 | 0.431 | 0.5 | 0.374 | 0.462
8 | COR-L 105 | 0.452 | 0.507 | 0.423 | 0.466 | 0.719 | 0.537 | 0.719 | 0.744 | 0.75 | 0.387 | 0.445 | 0.442 | 0.387 | 0.893 | 1.41 | 0.89 | 0.818 | 0.879
9 | Calu-6 | – | – | – | – | 1.02 | 0.999 | 1.06 | 1 | 1.01 | – | – | – | – | – | – | – | – | –
10 | ChaGo-K-1 | 0.475 | 0.542 | 0.543 | 0.471 | 1.08 | 0.886 | 0.87 | 1.01 | 1.08 | 0.883 | 0.98 | 0.903 | 0.972 | 0.785 | 0.827 | 0.715 | 0.766 | 0.756
11 | EBC-1 | – | – | – | – | 0.508 | 0.549 | 0.486 | 0.466 | 0.473 | – | – | – | – | – | – | – | – | –
12 | EKVX | 0.213 | 0.229 | 0.233 | 0.243 | 1.06 | 1.24 | 1.08 | 0.993 | 0.786 | 0.326 | 0.336 | 0.389 | 0.398 | 0.64 | 0.772 | 0.62 | 0.705 | 0.705
13 | EMC-BAC-2 | 0.516 | 0.607 | 0.569 | 0.517 | 1 | 1.12 | 0.948 | 0.994 | 0.904 | 0.863 | 0.947 | 1 | 0.851 | 0.465 | 0.416 | 0.409 | 0.401 | 0.461
14 | EPLC-272H | 0.282 | 0.309 | 0.255 | 0.298 | 0.871 | 0.819 | 0.397 | 0.923 | 0.942 | 0.286 | 0.335 | 0.265 | 0.244 | 0.404 | 0.439 | 0.4 | 0.708 | 0.664
15 | H3255 | 0.398 | 0.384 | 0.353 | 0.35 | 0.867 | 0.618 | 0.406 | 0.638 | 0.747 | 0.658 | 0.544 | 0.613 | 0.548 | 0.743 | 0.807 | 0.788 | 0.477 | 0.717
16 | HARA | 0.431 | 0.707 | 0.538 | 0.491 | 1.13 | 1.15 | 0.604 | 1.03 | 1.02 | 0.68 | 0.54 | 0.893 | 0.627 | 0.559 | 0.511 | 0.496 | 0.475 | 0.529
17 | HCC-15 | 0.511 | 0.545 | 0.49 | 0.456 | 0.979 | 1.04 | 0.773 | 1 | 0.943 | 0.389 | 0.35 | 0.414 | 0.418 | 0.92 | 0.806 | 0.818 | 0.793 | 0.888
18 | HCC-44 | 0.212 | 0.162 | 0.226 | 0.267 | 0.902 | 1.01 | 0.774 | 0.991 | 0.842 | 1.08 | 1.01 | 0.996 | 1.08 | 1.1 | 1.26 | 1.1 | 1.01 | 1.04
19 | HCC-78 | 0.66 | 0.705 | 0.697 | 0.806 | 0.488 | – | 0.213 | 0.305 | 0.577 | 0.773 | 0.906 | 0.828 | 0.734 | 0.41 | 0.391 | 0.42 | 0.488 | 0.4
20 | HCC-366 | 0.62 | 0.644 | 0.663 | 0.597 | 0.996 | 0.999 | 0.948 | 1.05 | 1.04 | 0.359 | 0.363 | 0.336 | 0.451 | 0.439 | 0.303 | 0.357 | 0.291 | 0.182
